Assay results as given in patent US6497899B2, “Rapidly disintegrating and fast-dissolving solid dosage form” (Pfizer, Inc., priority 2000, dated 2002).

Assay: Dissolution testing of medicated tablets, USP/NF method 711, apparatus 2 at 50 RPM, UV absorption
Assay type: physicochemical
Conditions: medicated steam extruded starch solid dosage form, apparatus 2, 50 RPM
Experimental: Dosage form dissolution is measured by the United States Pharmacopeia/National Formulary (USP/NF) method 711 (United States Pharmacopeia, Rockville, Md., USA) and is summarized below:
The assembly from Apparatus 1 is used except that a paddle formed from a blade and a shaft is used as the stirring element. The shaft is positioned so that its axis is not more than 2 mm at any point from the vertical axis of the vessel and rotates smoothly without significant wobble. The vertical center line of the blade passes through the axis of the shaft so that the bottom of the blade is flush with the bottom of the shaft. The distance of 25±2 mm between the blade and the inside bottom of the vessel is maintained during the test. The metallic or suitably inert, rigid blade and shaft comprise a single entity that may be coated with a suitable inert coating. The dosage unit is allowed to sink to the bottom of the vessel before rotation of the blade is started. A small, loose piece of nonreactive material such as not more than a few turns of wire helix may be attached to dosage units that would otherwise float. Other validated sinker devices may be used. […]
The stated volume of the dissolution medium (±1%) is placed in the vessel of the apparatus. The dissolution medium is equilibrated to 37±0.5°C., and the thermometer removed. One solid dosage form is placed in the apparatus, taking care to exclude air bubbles from the surface of the dosage-form unit and either apparatus is immediately operated at a rate of 50 rpm. The concentration of dissolved drug in dissolution medium is measured over time by ultraviolet spectrophotometer to calculate the dissolution rate.
The medicated tablets were dissolved according to USP/NF method 711 using apparatus 2 at 50 RPM. Levels of medicament released were determined by UV absorption.

[1] = dissolution media Simulated Intestinal Fluid without enzyme
[2] = dissolution media deionized H2O, 37 C

1 minute release [1]	5 minute release [1]	10 minute release [1]	60 minute release [1]	1 minute release [2]	5 minute release [2]	60 minute release [2]	SMILES
33.4%	69.6%	82.8%	101.4%				CC(C(=O)O)c1ccc2c(c1)[nH]c1ccc(Cl)cc12 (stereo not shown) [Carprofen]
				65.5%	82.7%	100.1%	Cl.Cl.O=C(O)COCCN1CCN(C(c2ccccc2)c2ccc(Cl)cc2)CC1 (stereo not shown) [Cetirizine.HCl]
				60.3%	76.7%	97.6%	OC(Cn1cncn1)(Cn1cncn1)c1ccc(F)cc1F [Diflucan, Fluconazole]
